# From paper PMC10400630, “Resensitizing multidrug-resistant Gram-negative bacteria to carbapenems and colistin using disulfiram” (Communications Biology, 2023)
# Positions of bridges follow the written chain, without caps; N, C: chain ends. Non-standard residues stand in square brackets, D forms with d. Residues, ends and D or L forms follow the SMILES beside them. *: point of attachment. Heptanoyl(5-Me) = CCC(C)CCCC(=O)*; Dab = NCC[C@H](N)C(=O)O
# How the values were obtained:
# E. coli ATCC 25922 = tested on: T1, E. coli ATCC 25922; experiment: microbe, parasite or virus in culture; parameters: broth microdilution MIC of antibiotic alone (checkerboard assay); conditions: Escherichia coli, ATCC25922; colistin alone
# T1 construct: ATCC 25922
# Description: (§1) The fractional inhibitory concentration index (FICI) value was used to evaluate the drug interaction of two compounds (A and B) and calculated as the sum of FICIA and FICIB. […] To validate the potentiation, we further evaluated these combinations on several types of Gram-negative bacteria, including drug-sensitive strains, MCR-producing Enterobacterales and MBL-positive Enterobacteriaceae. […] These NDM-positive Gram-negative pathogens carry blaNDM-1 or blaNDM-5 gene and are meropenem-resistant with MICs of 16-32 µg/mL. […] To explore the synergistic bactericidal activity of this combination, time-dependent killing curves for different MCR-positive Gram-negative bacteria were also determined.
# E. coli G92 (mcr-1) = tested on: T2, E. coli G92 (mcr-1); experiment: microbe, parasite or virus in culture; parameters: broth microdilution MIC of antibiotic alone (checkerboard assay); conditions: Escherichia coli; colistin alone
# T2 construct: G92 (mcr-1)
# Description: as §1
# [1] = tested on: T3, K. pneumoniae D120 (mcr-8); experiment: microbe, parasite or virus in culture; parameters: broth microdilution MIC of antibiotic alone (checkerboard assay); conditions: Klebsiella pneumoniae; colistin alone
# T3 construct: D120 (mcr-8)
# Description: as §1
# E. coli DH5α (PUC19) = tested on: T4, E. coli DH5α (PUC19); experiment: microbe, parasite or virus in culture; parameters: broth microdilution MIC of antibiotic alone (checkerboard assay); conditions: Escherichia coli; colistin alone
# T4 construct: DH5α (pUC19)
# Description: as §1
# S. enterica ATCC 13076 = tested on: T5, S. enterica ATCC 13076; experiment: microbe, parasite or virus in culture; parameters: broth microdilution MIC of antibiotic alone (checkerboard assay); conditions: Salmonella enterica, ATCC13076; colistin alone
# T5 construct: ATCC 13076
# Description: as §1
# E. coli B2 [2] = tested on: T6, E. coli B2; experiment: microbe, parasite or virus in culture; parameters: broth microdilution MIC of antibiotic alone (checkerboard assay); conditions: Escherichia coli, antibiotic alone
# T6 construct: B2
# Description: as §1
# E. coli CP131 (mcr-3) = tested on: T7, E. coli CP131 (mcr-3); experiment: microbe, parasite or virus in culture; parameters: broth microdilution MIC of antibiotic alone (checkerboard assay); conditions: Escherichia coli; colistin alone
# T7 construct: CP131 (mcr-3)
# Description: as §1
# E. coli B2 [3] = tested on: T6, E. coli B2; experiment: microbe, parasite or virus in culture; parameters: checkerboard broth microdilution, antibiotic alone, absorbance at 600 nm; conditions: antibiotic alone, without DSF; for MIC: Escherichia coli, B2
# Description: The fractional inhibitory concentration index (FICI) value was used to evaluate the drug interaction of two compounds (A and B) and calculated as the sum of FICIA and FICIB. […] To validate the potentiation, we further evaluated these combinations on several types of Gram-negative bacteria, including drug-sensitive strains, MCR-producing Enterobacterales and MBL-positive Enterobacteriaceae.
# NDM-positive E. coli C3 = experiment: microbe, parasite or virus in culture; parameters: MIC of meropenem alone before serial passage (passage 0); conditions: Escherichia coli, read-out: MICs of MEM, - DSF
# Method: To learn more about whether the addition of DSF contributes to preventing the development of antibiotic resistance, we carried out the serial passage assays in an NDM- or MCR-positive bacteria after exposure to meropenem/colistin, DSF and their combination. […] The mutation prevention index (MPI) was determined via the equation of MPC/MIC, which represents the opening of the mutant selection window (MSW, concentration range between MIC and MPC). When the MSW is narrower, drug-resistant strains are less likely to develop.
# NDM-5 = target: T8, NDM-5 (Escherichia coli, UniProt G3K399); experiment: purified NDM-[…]) enzyme inhibition assay, absorbance at […] nm; assay type: biochemical
# T8 construct: gene blaNDM-5
# T8 sequence (G3K399 29-270 limits assumed): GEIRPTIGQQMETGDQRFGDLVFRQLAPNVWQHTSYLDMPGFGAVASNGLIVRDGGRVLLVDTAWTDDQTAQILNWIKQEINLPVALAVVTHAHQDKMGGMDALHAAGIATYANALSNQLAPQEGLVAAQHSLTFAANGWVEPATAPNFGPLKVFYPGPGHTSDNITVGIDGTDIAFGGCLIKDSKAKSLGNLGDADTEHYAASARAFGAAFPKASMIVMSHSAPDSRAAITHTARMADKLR
structure (smiles),measurement,setting,value
CCC(C)CCCC(=O)N[C@@H](CCN)C(=O)N[C@H](C(=O)N[C@@H](CCN)C(=O)N[C@H]1CCNC(=O)[C@H]([C@@H](C)O)NC(=O)[C@H](CCN)NC(=O)[C@H](CCN)NC(=O)[C@H](CC(C)C)NC(=O)[C@@H](CC(C)C)NC(=O)[C@H](CCN)NC1=O)[C@@H](C)O (stereo partly drawn) [Colistin] ({Heptanoyl(5-Me)}-[Dab]T[Dab][Dab][Dab][dL]L[Dab][Dab]T; lactam 4-C),MIC,E. coli ATCC 25922,0.5 µg/mL
same,MIC,E. coli G92 (mcr-1),4 µg/mL
same,MIC,[1],4 µg/mL
same,MIC,E. coli DH5α (PUC19),0.25 µg/mL
same,MIC,S. enterica ATCC 13076,0.125 µg/mL
same,MIC,E. coli B2 [2],8 µg/mL
same,MIC,E. coli CP131 (mcr-3),2 µg/mL
C[C@H]1c2cccc(O)c2C(=O)C2=C(O)[C@]3(O)C(=O)C(C(N)=O)=C(O)[C@@H](N(C)C)[C@@H]3[C@@H](O)[C@@H]21 [Doxycycline],MIC,E. coli B2 [3],32 µg/mL
C[C@@H](O)[C@H]1C(=O)N2C(C(=O)O)=C(S[C@@H]3CN[C@H](C(=O)N(C)C)C3)[C@H](C)[C@H]12 [Meropenem],MIC,NDM-positive E. coli C3,8 µg/mL
same,MIC,E. coli B2 [3],32 µg/mL
CO[C@H]1/C=C/O[C@@]2(C)Oc3c(C)c(O)c4c(O)c(c(/C=N/N5CCN(C)CC5)c(O)c4c3C2=O)NC(=O)/C(C)=C\C=C\[C@H](C)[C@H](O)[C@@H](C)[C@@H](O)[C@@H](C)[C@H](OC(C)=O)[C@@H]1C [Rifampicin],MIC^a,E. coli B2 [3],128 µg/mL
CN(C)c1cc(NC(=O)CNC(C)(C)C)c(O)c2c1C[C@H]1C[C@H]3[C@H](N(C)C)C(O)=C(C(N)=O)C(=O)[C@@]3(O)C(O)=C1C2=O [Tigecycline],MIC,E. coli B2 [3],0.5 µg/mL
CN[C@H](CC(C)C)C(=O)N[C@H]1C(=O)N[C@@H](CC(N)=O)C(=O)N[C@H]2C(=O)N[C@H]3C(=O)N[C@H](C(=O)N[C@H](C(=O)O)c4cc(O)cc(O)c4-c4cc3ccc4O)[C@H](O)c3ccc(c(Cl)c3)Oc3cc2cc(c3O[C@@H]2O[C@H](CO)[C@@H](O)[C@H](O)[C@H]2O[C@H]2C[C@](C)(N)[C@H](O)[C@H](C)O2)Oc2ccc(cc2Cl)[C@H]1O [Vancomycin],MIC,E. coli B2 [3],64 µg/mL
CCN(CC)C(=S)SSC(=S)N(CC)CC [disulfiram],IC50,NDM-5,95.5 µM
